Our source for the IC50 and bacteriostatic activity values is US4036961A (priority 1972, dated 1977).

Where a name gives a salt, the structure may show the parent alone.

The target in test [1] is hydroxymethyldihydropteridine pyrophosphokinase (HMPPS) (Escherichia coli, UniProt P26281). Nature of the test: Inhibition of the enzymes of dihydropteroate biosynthesis (ATP-γ-P32 transfer assay for HMPPS; dihydropteroate-C14 formation for synthetase). The test is classed as biochemical. The settings on record: enzymes from E. coli extract; tests (a) HMPPS and (b) synthetase of Example 5; read-out: concentration giving 50% inhibition. Here is the method: The inhibiting activity against HMPPS of a selected compound of formula (I) can, for instance, be tested by monitoring the transfer of the terminal phosphate of adenosine triphosphate ATP-γ-P^32 to `dihydropteridine`. […] Such inhibition may, for instance, be easily and simply carried out by incubating an extract of E. coli with pAB-7-C^14, ATP, Mg and `dihydropteridine`. The formation of the dihydropteroate-C^14 can be quantitatively assayed after separating the unreated pAB substrate, for instance by chromatography. […] Preferably the value is 25 μM or less, such as in the range between […]. Generally a value below 7μM is desirable. […]
Sequence of hydroxymethyldihydropteridine pyrophosphokinase (HMPPS) (P26281 whole entry): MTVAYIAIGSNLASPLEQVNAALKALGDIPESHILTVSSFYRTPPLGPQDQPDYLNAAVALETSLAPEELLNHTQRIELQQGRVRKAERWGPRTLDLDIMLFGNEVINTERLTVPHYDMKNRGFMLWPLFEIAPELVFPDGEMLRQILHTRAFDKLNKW
phosphate of ATP-γ-P^32 to Pt could be monitored and correlated […]
Tubes 1 to 9 containing the amounts of components shown in the Table, were filled up to 200μl with distilled water, incubated for 60 minutes at 37° C and then chilled on ice. […] The charcoal and the filter were then radioactively counted.
The radioactive count from the contents of tubes 2 and 3 was taken as the maximum count, since these tubes contained no test compound and thus gave 0% enzyme inhibition. The percentage inhibition produced by the contents of the remaining tubes could then be calculated by relating their radioactive count to the maximum, as determined above. […]

The subject of the next test is Derm. dermatonomous. The note with it: disclosed in British Pat. No. 1303171 and Application No. 36289/70; cited from earlier work.
The next test relates to Cl. perfringens. The note with it: disclosed in British Pat. No. 1303171 and Application No. 36289/70; cited from earlier work.

As for `CC1(C)Nc2nc(N)nc(O)c2N=C1CBr` [2-Amino-4-hydroxy-6-bromomethyl-7,7-dimethyl-7,8-dihydropteridine hydrobromide], in test [1], the IC50 was 5 µM.

Consider `CC1(C)Nc2nc(N)nc(O)c2N=C1CO` [2-amino-4-hydroxy-6-hydroxymethyl-7,7-dimethyl-7,8-dihydropteridine], for which the bacteriostatic activity entry in the test on Derm. dermatonomous and in the test on Cl. perfringens was “particularly effective” throughout.

In the case of `CC1=Nc2c(O)nc(N)nc2NC1(C)C` [2-amino-4-hydroxy-6-methyl-7,7-dimethyl-7,8-dihydropteridine], the bacteriostatic activity result in the test on Derm. dermatonomous and in the test with Cl. perfringens was “particularly effective” each time.

For `CC1(C)Nc2nc(N)nc(O)c2N=C1C(Br)Br` [the 6-dibromomethyl analogue, 2-Amino-4-hydroxy-6-dibromomethyl-7,7-dimethyl-7,8-dihydropteridine hydrobromide], the IC50 in test [1] turned out to be 25 µM.
